The values that follow come from patent EP4562004B1, “NOVEL 7-SUBSTITUTED INDOLE SULFONAMIDE DERIVATIVES” (F. Hoffmann-La Roche AG, priority 2022, dated 2024).

As a reminder, the IC50 is the concentration that gives 50% inhibition.

The target of the experiment is human GPR17 short isoform (Homo sapiens, UniProt Q13304). Briefly: GPR17 cAMP assay (antagonist mode, TR-FRET cAMP detection). The conditions noted are these: CHO-K1 cells stably expressing human GPR17 short isoform; with EC80 concentration of agonist MDL29,951, IBMX 0.5mM, forskolin 15µM; normalized to reference antagonist; read-out: hGPR17 cAMP IC50. The experiment is classed as cell-based. Here is the method:
CHO-K1 cells stably expressing vector containing untagged human GPR17 short isoform (Roche) were cultured at 37°C / 5% CO2 in DMEM (Dulbecco's Modified Eagle Medium):F-12 (1:1) supplemented with 10% foetal bovine serum and 400 µg/ml Geneticin.
Changes in intracellular cyclic adenosine monophosphate (cAMP) levels were quantified using the Nano-TRF Detection Assay kit (Roche Diagnostics, Cat. No. 05214386001). This assay allows for direct cAMP quantification in a homogeneous solution. cAMP is detected based on time-resolved fluorescence energy transfer (TR-FRET) and competitive binding of ruthenylated cAMP and endogenous cAMP to an anti-cAMP monoclonal antibody labeled with AlexaFluor-700. The Ruthenium complex serves as the FRET donor and transfers energy to AlexaFluor-700. The FRET signal is inversely proportional to the cAMP concentration.
CHO-GPR17S cells were detached with Accutase and resuspended in assay buffer consisting of Hank's Balanced Salt Solution (HBSS), 10mM HEPES (4-(2-hydroxyethyl) piperazine-1-ethanesulfonic acid solution) and 0.1% bovine serum albumin (pH 7.4). The cells were seeded in black 384-well plates (Corning) at a density of 10'000 cells / 20µl assay buffer until the addition of compounds.
Test antagonist compounds were serially diluted in dimethyl sulfoxide (DMSO) and spotted in 384-well plates. The compounds were then diluted in HBSS buffer supplemented with an EC80 concentration of MDL29,951 (3-(2-Carboxy-4,6-dichloroindol-3-yl)propionic acid) (GPR17 agonist) plus 3-Isobutyl-1-methylxanthine (IBMX) (0.5mM final concentration) and added to the cells at room temperature. Forskolin (15µM final concentration) was added 5 minutes after the test compounds and the cells were incubated at room temperature for 30 minutes. The assay was stopped by adding cAMP detection mix (containing detergents for cell lysis) for 90 minutes at room temperature.
Cellular cAMP was measured using a Paradigm reader (Molecular Devices). The raw data was used to calculate the FRET signal based on the assay's P-factor as per cAMP kit instructions. The data was normalized to the maximal activity of a reference antagonist and dose response curves were fitted to the percent activity of the test compounds using a sigmoidal dose response model (Genedata Screener).
Results in the hGPR17 cAMP assay are provided for compounds of formula I in Table 1 Table 1: […]
(Cyclic AMP is a second messenger, typically raised through Gs and lowered through Gi signalling.)

Chain of human GPR17 short isoform (Q13304 29-367): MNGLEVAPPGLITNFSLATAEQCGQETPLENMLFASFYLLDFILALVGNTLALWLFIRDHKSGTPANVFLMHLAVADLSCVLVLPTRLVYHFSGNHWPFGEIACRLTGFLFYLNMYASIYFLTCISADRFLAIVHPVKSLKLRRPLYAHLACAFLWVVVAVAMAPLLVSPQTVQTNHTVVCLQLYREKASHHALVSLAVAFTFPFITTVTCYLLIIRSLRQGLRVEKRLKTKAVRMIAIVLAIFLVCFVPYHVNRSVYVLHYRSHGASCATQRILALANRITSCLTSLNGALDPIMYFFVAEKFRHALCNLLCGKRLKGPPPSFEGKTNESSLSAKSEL

For the compound `COc1nc(NS(=O)(=O)c2c[nH]c3c(-n4nccn4)c(C)ccc23)nc(OC)c1OCC(F)F` [Example 25, N-[5-(2,2-difluoroethoxy)-4,6-dimethoxy-pyrimidin-2-yl]-6-methyl-7-(triazol-2-yl)-1H-indole-3-sulfonamide], the concentration for half-maximal inhibition (IC50) was found to be 34 nM.
With `COc1nc(NS(=O)(=O)c2c[nH]c3c(-n4cccn4)c(C)ccc23)nc(OC)c1OC(F)F` [Example 76, N-[5-(difluoromethoxy)-4,6-dimethoxy-pyrimidin-2-yl]-6-methyl-7-pyrazol-1-yl-1H-indole-3-sulfonamide], the IC50 was 75 nM.
In the case of `[2H]C([2H])(F)C([2H])([2H])Oc1c(OC)nc(NS(=O)(=O)c2c[nH]c3c(-n4cccn4)c(Cl)ccc23)nc1OC` [Example 68, 6-chloro-N-[4,6-dimethoxy-5-(1,1,2,2-tetradeuterio-2-fluoro-ethoxy)pyrimidin-2-yl]-7-pyrazol-1-yl-1H-indole-3-sulfonamide] it was 36 nM.
In the case of `COc1nc(NS(=O)(=O)c2c[nH]c3c(-n4nccn4)c(F)ccc23)nc(OC)c1OC(F)F` [Example 34, N-[5-(difluoromethoxy)-4,6-dimethoxy-pyrimidin-2-yl]-6-fluoro-7-(triazol-2-yl)-1H-indole-3-sulfonamide] it was 226 nM.
As for `COc1nc(NS(=O)(=O)c2c[nH]c3c(-n4cccn4)c(C(F)F)ccc23)nc(OC)c1OCC(F)F` [Example 50, N-[5-(2,2-difluoroethoxy)-4,6-dimethoxy-pyrimidin-2-yl]-6-(difluoromethyl)-7-pyrazol-1-yl-1H-indole-3-sulfonamide], the IC50 turned out to be 65 nM.
`COc1nc(NS(=O)(=O)c2c[nH]c3c(-n4cccn4)c(C(F)F)ccc23)nc(OC)c1CC(F)F` [Example 52, N-[5-(2,2-difluoroethyl)-4,6-dimethoxy-pyrimidin-2-yl]-6-(difluoromethyl)-7-pyrazol-1-yl-1H-indole-3-sulfonamide]: the half-maximal inhibitory concentration (IC50) was found to be 68 nM.
In the case of `[2H]C([2H])(c1cnc(NS(=O)(=O)c2c[nH]c3c(-n4cccn4)c(Cl)ccc23)nc1OC)C(F)F` [Example 72, 6-chloro-N-[5-(1,1-dideuterio-2,2-difluoroethyl)-4-methoxy-pyrimidin-2-yl]-7-pyrazol-1-yl-1H-indole-3-sulfonamide] it was 41 nM; in that of `COc1nc(NS(=O)(=O)c2c[nH]c3c(-n4nccn4)c(Cl)ccc23)nc(OC)c1C` [Example 62, 6-chloro-N-(4,6-dimethoxy-5-methyl-pyrimidin-2-yl)-7-(triazol-2-yl)-1H-indole-3-sulfonamide], 19 nM; in that of `COc1nc(NS(=O)(=O)c2c[nH]c3c(-n4cccn4)c(Cl)ccc23)nc(OC)c1CCC#N` [Example 70, 6-chloro-N-[5-(2-cyanoethyl)-4,6-dimethoxy-pyrimidin-2-yl]-7-pyrazol-1-yl-1H-indole-3-sulfonamide], 37 nM.
In the case of `COc1nc(NS(=O)(=O)c2c[nH]c3c(-n4cccn4)c(C)ccc23)nc(OC)c1OCC(F)F` [Example 74, N-[5-(2,2-difluoroethoxy)-4,6-dimethoxy-pyrimidin-2-yl]-6-methyl-7-pyrazol-1-yl-1H-indole-3-sulfonamide] it was 59 nM; in that of `COc1nc(NS(=O)(=O)c2c[nH]c3c(-n4cccn4)c(Cl)ccc23)nc(OC)c1CC(F)F` [Example 4, 6-chloro-N-[5-(2,2-difluoroethyl)-4,6-dimethoxy-pyrimidin-2-yl]-7-pyrazol-1-yl-1H-indole-3-sulfonamide], 22 nM; in that of `COc1nc(NS(=O)(=O)c2c[nH]c3c(-n4nccn4)c(F)ccc23)nc(OC)c1OCC(F)F` [Example 35, N-[5-(2,2-difluoroethoxy)-4,6-dimethoxy-pyrimidin-2-yl]-6-fluoro-7-(triazol-2-yl)-1H-indole-3-sulfonamide], 126 nM.
As for `COc1nc(NS(=O)(=O)c2c[nH]c3c(-n4nccn4)c(Cl)ccc23)ncc1OCCF` [Example 12, 6-chloro-N-[5-(2-fluoroethoxy)-4-methoxy-pyrimidin-2-yl]-7-(triazol-2-yl)-1H-indole-3-sulfonamide], the half-inhibitory concentration (IC50) was 52 nM.
The result for `COc1nc(NS(=O)(=O)c2c[nH]c3c(-n4nccn4)c(Cl)ccc23)nc(OC)c1OC(F)F` [Example 15, 6-chloro-N-[5-(difluoromethoxy)-4,6-dimethoxy-pyrimidin-2-yl]-7-(triazol-2-yl)-1H-indole-3-sulfonamide] reads 25 nM; that for `COc1nc(NS(=O)(=O)c2c[nH]c3c(-n4nccn4)c(C)ccc23)nc(OC)c1C1CC1C#N` (centres unmarked) [Example 26, N-[5-(2-cyanocyclopropyl)-4,6-dimethoxy-pyrimidin-2-yl]-6-methyl-7-(triazol-2-yl)-1H-indole-3-sulfonamide], 25 nM.
Turning to `COc1nc(NS(=O)(=O)c2c[nH]c3c(-n4nccn4)c(Cl)ccc23)nc(OC)c1OCC#N` [Example 60, 6-chloro-N-[5-(cyanomethoxy)-4,6-dimethoxy-pyrimidin-2-yl]-7-(triazol-2-yl)-1H-indole-3-sulfonamide], the 50% inhibitory concentration (IC50) amounted to 49 nM.
In the case of `COc1nc(NS(=O)(=O)c2c[nH]c3c(-n4nc(C)cc4C)cccc23)nc(OC)c1CC(F)F` [Example 2, N-[5-(2,2-difluoroethyl)-4,6-dimethoxy-pyrimidin-2-yl]-7-(3,5-dimethylpyrazol-1-yl)-1H-indole-3-sulfonamide], the 50% inhibitory concentration (IC50) was 32 nM.
As for `COc1nc(NS(=O)(=O)c2c[nH]c3c(-n4nccn4)c(C)ccc23)nc(OC)c1OC(F)F` [Example 24, N-[5-(difluoromethoxy)-4,6-dimethoxy-pyrimidin-2-yl]-6-methyl-7-(triazol-2-yl)-1H-indole-3-sulfonamide], the IC50 worked out at 38 nM.
`COc1nc(NS(=O)(=O)c2c[nH]c3c(-n4nccc4C)c(Cl)ccc23)nc(OC)c1OCC(F)F` [Example 46, 6-chloro-N-[5-(2,2-difluoroethoxy)-4,6-dimethoxy-pyrimidin-2-yl]-7-(5-methylpyrazol-1-yl)-1H-indole-3-sulfonamide]: the concentration for half-maximal inhibition (IC50) turned out to be 45 nM.
In the case of `COc1nc(NS(=O)(=O)c2c[nH]c3c(-n4nccn4)c(C)ccc23)nc(OC)c1CC(F)F` [Example 22, N-[5-(2,2-difluoroethyl)-4,6-dimethoxy-pyrimidin-2-yl]-6-methyl-7-(triazol-2-yl)-1H-indole-3-sulfonamide], the IC50 stood at 21 nM.
Take `COc1nc(NS(=O)(=O)c2c[nH]c3c(-n4nccn4)c(F)ccc23)nc(OC)c1C1CC1C#N` (centres unmarked) [Example 36, N-[5-(2-cyanocyclopropyl)-4,6-dimethoxy-pyrimidin-2-yl]-6-fluoro-7-(triazol-2-yl)-1H-indole-3-sulfonamide]: the IC50 is 82 nM.
With `COc1nc(NS(=O)(=O)c2c[nH]c3c(-n4nccn4)c(F)ccc23)nc(OC)c1OCCF` [Example 33, 6-fluoro-N-[5-(2-fluoroethoxy)-4,6-dimethoxy-pyrimidin-2-yl]-7-(triazol-2-yl)-1H-indole-3-sulfonamide], the 50% inhibitory concentration (IC50) worked out at 141 nM.
With `COc1nc(NS(=O)(=O)c2c[nH]c3c(-n4cc(F)cn4)c(Cl)ccc23)nc(OC)c1OCCF` [Example 47, 6-chloro-N-[5-(2-fluoroethoxy)-4,6-dimethoxy-pyrimidin-2-yl]-7-(4-fluoropyrazol-1-yl)-1H-indole-3-sulfonamide], the IC50 was 26 nM.
